Measured values as given in ChEMBL document CHEMBL1138341, “(S)-N-{3-[1-cyclopropyl-1-(2,4-difluoro-phenyl)-ethyl]-1H-indol-7-yl}-methanesulfonamide: a potent, nonsteroidal, functional antagonist of the mineralocorticoid receptor” (J Med Chem, 2007).
The source made the active and inactive calls. The rule behind the calls is not given here.

Legend:
Estrogen receptor = target: T1, Estrogen receptor (Homo sapiens, UniProt P03372); assay: Binding affinity to human estrogen receptor
T1 sequence (P03372 whole entry): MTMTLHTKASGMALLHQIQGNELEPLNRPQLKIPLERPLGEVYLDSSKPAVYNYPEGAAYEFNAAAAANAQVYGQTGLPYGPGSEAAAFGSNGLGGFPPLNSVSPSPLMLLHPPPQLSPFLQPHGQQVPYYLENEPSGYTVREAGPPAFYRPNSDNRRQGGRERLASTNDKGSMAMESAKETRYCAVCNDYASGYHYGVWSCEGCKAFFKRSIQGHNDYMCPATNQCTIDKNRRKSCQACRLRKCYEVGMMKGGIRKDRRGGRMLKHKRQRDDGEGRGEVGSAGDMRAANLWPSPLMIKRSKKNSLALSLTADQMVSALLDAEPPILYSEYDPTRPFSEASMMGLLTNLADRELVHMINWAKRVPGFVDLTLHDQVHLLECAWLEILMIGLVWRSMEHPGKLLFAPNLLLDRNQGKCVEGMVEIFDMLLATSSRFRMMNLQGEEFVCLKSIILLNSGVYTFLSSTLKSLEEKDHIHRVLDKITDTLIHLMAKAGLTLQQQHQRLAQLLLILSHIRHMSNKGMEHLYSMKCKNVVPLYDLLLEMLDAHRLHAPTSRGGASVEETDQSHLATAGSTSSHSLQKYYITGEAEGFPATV

Glucocorticoid receptor = target: T2, Glucocorticoid receptor (Homo sapiens, UniProt P04150); assay: Binding affinity to human glucocorticoid receptor
T2 sequence (P04150 whole entry): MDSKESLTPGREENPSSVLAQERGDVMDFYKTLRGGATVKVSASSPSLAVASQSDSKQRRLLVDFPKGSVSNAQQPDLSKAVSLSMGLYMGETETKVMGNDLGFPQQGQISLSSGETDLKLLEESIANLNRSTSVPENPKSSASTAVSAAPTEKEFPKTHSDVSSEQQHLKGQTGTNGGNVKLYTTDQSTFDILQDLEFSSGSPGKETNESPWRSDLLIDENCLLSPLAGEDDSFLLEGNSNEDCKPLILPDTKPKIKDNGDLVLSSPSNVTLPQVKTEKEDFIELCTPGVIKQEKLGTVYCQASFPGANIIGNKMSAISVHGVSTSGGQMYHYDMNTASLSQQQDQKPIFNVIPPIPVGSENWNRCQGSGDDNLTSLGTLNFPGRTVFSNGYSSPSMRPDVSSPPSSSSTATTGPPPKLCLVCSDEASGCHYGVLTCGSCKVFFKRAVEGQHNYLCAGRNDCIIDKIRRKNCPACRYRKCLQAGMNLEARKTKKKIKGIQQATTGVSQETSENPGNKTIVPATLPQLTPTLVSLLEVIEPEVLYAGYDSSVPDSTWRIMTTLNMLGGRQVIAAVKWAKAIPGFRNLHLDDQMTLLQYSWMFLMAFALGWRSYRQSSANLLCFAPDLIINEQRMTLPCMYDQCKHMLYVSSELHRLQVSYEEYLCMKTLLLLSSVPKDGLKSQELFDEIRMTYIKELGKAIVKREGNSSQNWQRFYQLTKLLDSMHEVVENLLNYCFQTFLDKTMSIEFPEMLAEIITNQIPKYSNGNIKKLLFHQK

[1] = target: T3, Mineralocorticoid receptor (Homo sapiens) (UniProt P08235); assay: Antagonist activity at human mineralocorticoid receptor expressed in COS7 cells after 24 hrs by luciferase reporter gene assay; type: functional, cell-based; conditions: COS-7
T3 sequence (whole entry): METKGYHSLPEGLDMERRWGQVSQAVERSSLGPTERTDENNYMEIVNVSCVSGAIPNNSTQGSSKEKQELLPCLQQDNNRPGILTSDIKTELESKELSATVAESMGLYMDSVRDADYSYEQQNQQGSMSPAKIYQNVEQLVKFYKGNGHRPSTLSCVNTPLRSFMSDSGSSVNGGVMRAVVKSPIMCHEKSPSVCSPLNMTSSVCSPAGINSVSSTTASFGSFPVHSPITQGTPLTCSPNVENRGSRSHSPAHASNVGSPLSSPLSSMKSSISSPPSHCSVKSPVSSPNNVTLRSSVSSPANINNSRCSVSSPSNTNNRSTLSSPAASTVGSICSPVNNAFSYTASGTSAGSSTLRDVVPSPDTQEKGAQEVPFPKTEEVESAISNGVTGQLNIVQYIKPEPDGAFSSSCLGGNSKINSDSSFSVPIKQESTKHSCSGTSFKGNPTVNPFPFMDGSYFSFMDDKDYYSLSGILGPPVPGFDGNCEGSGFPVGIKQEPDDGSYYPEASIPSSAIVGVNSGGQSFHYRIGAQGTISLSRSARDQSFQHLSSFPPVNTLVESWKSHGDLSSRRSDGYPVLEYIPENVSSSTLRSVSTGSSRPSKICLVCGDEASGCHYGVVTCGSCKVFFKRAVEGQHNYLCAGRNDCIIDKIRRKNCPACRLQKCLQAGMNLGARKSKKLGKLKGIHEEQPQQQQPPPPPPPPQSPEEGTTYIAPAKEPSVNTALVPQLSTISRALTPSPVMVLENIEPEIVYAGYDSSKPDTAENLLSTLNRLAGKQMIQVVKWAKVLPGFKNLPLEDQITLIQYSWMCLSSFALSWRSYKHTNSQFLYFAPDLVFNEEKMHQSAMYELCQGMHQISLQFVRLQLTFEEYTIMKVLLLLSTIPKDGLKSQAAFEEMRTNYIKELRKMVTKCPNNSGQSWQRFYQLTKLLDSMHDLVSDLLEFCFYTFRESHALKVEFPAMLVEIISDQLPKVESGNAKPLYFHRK

[2] = target: T4, Mineralocorticoid receptor (Homo sapiens, UniProt P08235); assay: Binding affinity to human mineralocorticoid receptor
T4 sequence (P08235 whole entry): T3 sequence (whole entry)

Progesterone receptor = target: T5, Progesterone receptor (Homo sapiens, UniProt P06401); assay: Binding affinity to human progesterone receptor
T5 sequence (P06401 whole entry): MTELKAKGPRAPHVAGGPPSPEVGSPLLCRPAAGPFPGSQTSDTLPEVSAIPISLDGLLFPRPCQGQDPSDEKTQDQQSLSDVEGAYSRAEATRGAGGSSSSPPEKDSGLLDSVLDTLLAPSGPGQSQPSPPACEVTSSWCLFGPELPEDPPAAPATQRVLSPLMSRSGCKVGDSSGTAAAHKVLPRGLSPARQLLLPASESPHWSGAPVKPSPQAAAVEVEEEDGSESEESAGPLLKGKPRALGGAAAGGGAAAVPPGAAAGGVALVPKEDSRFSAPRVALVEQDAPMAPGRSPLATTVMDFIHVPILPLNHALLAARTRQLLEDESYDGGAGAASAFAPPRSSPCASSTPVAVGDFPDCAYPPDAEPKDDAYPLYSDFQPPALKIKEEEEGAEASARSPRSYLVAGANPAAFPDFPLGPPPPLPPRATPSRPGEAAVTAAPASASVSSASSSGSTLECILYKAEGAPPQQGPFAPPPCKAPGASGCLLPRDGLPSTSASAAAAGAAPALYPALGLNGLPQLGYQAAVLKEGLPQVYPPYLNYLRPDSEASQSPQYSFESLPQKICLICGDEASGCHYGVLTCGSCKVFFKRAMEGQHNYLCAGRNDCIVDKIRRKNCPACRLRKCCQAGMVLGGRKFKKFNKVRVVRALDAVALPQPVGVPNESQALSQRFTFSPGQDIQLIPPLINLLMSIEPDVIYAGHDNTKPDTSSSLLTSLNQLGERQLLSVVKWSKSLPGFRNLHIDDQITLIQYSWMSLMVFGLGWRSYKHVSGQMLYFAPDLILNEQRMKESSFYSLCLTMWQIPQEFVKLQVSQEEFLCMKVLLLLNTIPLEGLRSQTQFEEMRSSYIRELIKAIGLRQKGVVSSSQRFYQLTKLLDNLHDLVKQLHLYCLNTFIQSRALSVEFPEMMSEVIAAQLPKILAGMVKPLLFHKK

Rattus norvegicus [3] = assay: Reduction in aldosterone-induced hypertension in salt-loaded uni-nephrectomized Sprague-Dawley rat at 3 mg/kg, po qd after 14 days; type: functional, organism-based; set-up: dose 3 mg/kg
Androgen receptor = target: T6, Androgen receptor (Homo sapiens, UniProt P10275); assay: Binding affinity to human androgen receptor
T6 sequence (P10275 whole entry): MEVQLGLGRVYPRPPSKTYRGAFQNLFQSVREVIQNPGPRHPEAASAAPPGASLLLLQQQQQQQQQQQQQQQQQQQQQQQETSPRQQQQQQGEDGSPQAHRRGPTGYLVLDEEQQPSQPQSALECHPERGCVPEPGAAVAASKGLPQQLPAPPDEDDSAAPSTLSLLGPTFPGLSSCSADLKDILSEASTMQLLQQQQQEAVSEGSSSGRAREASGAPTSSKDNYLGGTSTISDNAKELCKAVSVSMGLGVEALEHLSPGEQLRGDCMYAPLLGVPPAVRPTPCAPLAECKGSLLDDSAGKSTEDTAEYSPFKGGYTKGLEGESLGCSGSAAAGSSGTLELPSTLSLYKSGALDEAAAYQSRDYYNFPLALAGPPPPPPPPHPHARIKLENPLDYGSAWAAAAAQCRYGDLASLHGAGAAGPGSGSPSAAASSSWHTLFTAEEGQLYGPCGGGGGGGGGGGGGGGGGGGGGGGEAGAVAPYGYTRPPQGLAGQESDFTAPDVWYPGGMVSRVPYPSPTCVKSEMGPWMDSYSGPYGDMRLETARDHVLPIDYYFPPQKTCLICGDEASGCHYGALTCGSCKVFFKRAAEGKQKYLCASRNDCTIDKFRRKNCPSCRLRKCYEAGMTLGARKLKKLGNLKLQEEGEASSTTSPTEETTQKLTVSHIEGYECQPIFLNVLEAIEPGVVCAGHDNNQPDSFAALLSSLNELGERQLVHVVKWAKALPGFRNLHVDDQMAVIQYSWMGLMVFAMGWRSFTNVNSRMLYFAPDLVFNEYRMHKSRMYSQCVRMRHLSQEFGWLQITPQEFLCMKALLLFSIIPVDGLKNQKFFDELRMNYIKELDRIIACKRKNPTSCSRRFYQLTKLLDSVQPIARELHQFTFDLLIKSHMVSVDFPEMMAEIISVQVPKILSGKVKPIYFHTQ

Rattus norvegicus [4] = assay: Reduction in aldosterone-induced hypertension in salt-loaded uni-nephrectomized Sprague-Dawley rat at 30 mg/kg, po qd after 14 days; type: functional, organism-based; set-up: dose 30 mg/kg

Structure (SMILES)	Ki (Estrogen receptor) [nM]	Ki (Glucocorticoid receptor) [nM]	Kb [1] [nM]	Ki [2] [nM]	Ki (Progesterone receptor) [nM]	Activity (Rattus norvegicus [3])	Ki (Androgen receptor) [nM]	Activity (Rattus norvegicus [4])
CC(=O)S[C@@H]1CC2=CC(=O)CC[C@]2(C)[C@H]2CC[C@@]3(C)[C@@H](CC[C@@]34CCC(=O)O4)[C@H]12 [SPIRONOLACTONE]	> 1100	32.6	–	–	–	–	–	–
C[C@@](c1ccc(F)cc1)(c1c[nH]c2c(NS(C)(=O)=O)cccc12)C1CC1	> 1100	167	38.2	1.56	137	inactive	849	–
C[C@](c1ccc(F)cc1)(c1c[nH]c2c(NS(C)(=O)=O)cccc12)C1CC1	> 1100	387	115	7.5	313	–	590	–
C[C@@](c1ccc(F)cc1F)(c1c[nH]c2c(NS(C)(=O)=O)cccc12)C1CC1	> 1100	–	–	–	163	Active	700	–
COC(=O)[C@@H]1CC2=CC(=O)CC[C@]2(C)C2C1C1CC[C@@]3(CCC(=O)O3)[C@@]1(C)[C@H]1O[C@@H]21 (stereo partly specified) [EPIERENONE]	> 1100	1760	189	124	29400	–	8890	Active
